Test results reported in paper PMC8704611, “Synthesis, Molecular Docking Analysis, and Biological Evaluations of Saccharide-Modified Sulfonamides as Carbonic Anhydrase IX Inhibitors” (International Journal of Molecular Sciences, 2021).
Like-named read-outs stand apart in the source and are kept apart here.

Assays:
HT-29 cells [1] = assay: Measurement of extracellular pH; type: cell-based; conditions: for effect on extracellular pH: HT-29, 0.1 mM and 1.0 mM; for Extracellular pH, Hypoxic condition: hypoxia, control 6.81; for Extracellular pH, Normoxic condition: normoxia, control 7.02
Method: The main role of CA IX and XII in tumour development is to regulate the pH of the tumour growth microenvironment so that tumour cells are in a weakly acidic environment. Such an acidic environment is conducive to the growth of tumour cells and protects tumour cells from being killed by chemotherapeutics. We evaluated the effects of 0.1 mM and 1.0 mM of compounds 16a and 16b on the pH of the tumour cell growth environment under normoxia or hypoxia (detailed data is provided in the Tables S5 and S6 of supplementary information).
(§1) The changes in extracellular pH were evaluated according to previously published procedures. Cancer cells were grown in the medium containing 10% FBS and incubated in 6-well plates for 12 h. After removing the medium, we added fresh medium to the 6-well plates and incubated them for 48 h under hypoxia or normoxia. Then, we measured the pH of the culture medium immediately after collection. The tested compounds were dissolved in DMSO and diluted to the desired concentration. After the addition of tested compounds, the same procedure was carried out.

MDA-MB-231 cells [2] = assay: Measurement of extracellular pH; type: cell-based; conditions: for effect on extracellular pH: MDA-MB-231, 0.1 mM and 1.0 mM; for Extracellular pH, Hypoxic condition: hypoxia, control 6.84; for Extracellular pH, Normoxic condition: normoxia, control 7.06
Method: The main role of CA IX and XII in tumour development is to regulate the pH of the tumour growth microenvironment so that tumour cells are in a weakly acidic environment. Such an acidic environment is conducive to the growth of tumour cells and protects tumour cells from being killed by chemotherapeutics.
as §1

hCA XII = hCA XII (Homo sapiens, UniProt O43570); assay: CA inhibition assay (hydrolysis of 4-nitrophenylacetate); type: biochemical; conditions: 4-NPA hydrolysis; three independent assays, relative errors 5–10%
Description: (§2) Carbonic anhydrase has the ability to catalyse the hydrolysis of 4-NPA. […] More detailed operations and specific parameters are as reported earlier.

hCA II = hCA II (Homo sapiens, UniProt P00918); assay: as above; type: biochemical; conditions: 4-NPA hydrolysis; three independent assays, relative errors 5–10%
Description: as §2

hCA IX = hCA IX (Homo sapiens, UniProt Q16790); assay: as above; type: biochemical; conditions: 4-NPA hydrolysis; three independent assays, relative errors 5–10%
Description: as §2

MG-63 cells = assay: CCK-8 cell viability assay; type: cell-based, human; conditions: for viability at 800 µM: Homo sapiens, MG-63, 800 μM, 48 h
Method: The human osteosarcoma cell line MG-63 is a high-expressing cell line of CA IX and XII [24]. We selected compound 16b with the best activity in the above studies to study the cell viability inhibitory activity of MG-63 (detailed data is provided in the Table S4 of supplementary information).
(§3) Cell viability was tested by CCK-8 assay. The MDA-MB-231, HT-29 and MG-63 cell lines were provided by KeyGEN BioTECH Ltd. (Nanjing, Jiangsu, China). The cancer cell suspension was prepared to 5.0 × 10^4 cells/mL. After adding 100 μL cell suspension into each well of 96-well plates, the 96-well plates were placed in the incubator at 37 °C and 5% CO2 for 24 h. The compounds were diluted to the required concentration with the medium, and 100 μL of the corresponding medium was added to each well. Meanwhile, the negative control group was set up. The plates were incubated in normoxia or hypoxia for 48 h. The CCK-8 solution (10 μL) was added to each well, and the cells were incubated for another 3 h. After removing the bubbles in each well, cell viability was assessed by measuring the absorbance at 450 nm wavelength using a microplate reader. The hypoxia atmosphere consisted of 0.5% O2, 5% CO2, and 94.5% N2. The normoxia atmosphere was air.

HT-29 cells [3] = assay: CCK-8 cell viability assay; type: cell-based; conditions: for decrease in cell viability: HT-29, highest concentration of 400 μM; for viability at 400 µM: Homo sapiens, HT-29, 400 μM, 48 h
Method: (§4) The CCK-8 assay was used to evaluate the cytotoxicity of compounds 16a, 16b, and 16e on the breast cancer cell line MDA-MB-231 and colon cancer cell line HT-29. MDA-MB-231 and HT-29 are tumour cells that have been reported to express CA IX. We cultivated them under normoxia and hypoxia respectively and then evaluated the effects of the compounds on tumour cell viability at different concentrations.
as §3

MDA-MB-231 cells [4] = assay: CCK-8 cell viability assay; type: cell-based; conditions: Homo sapiens, MDA-MB-231, 400 μM, 48 h
Method: as §4, §3

MDA-MB-231 cells [5] = assay: Cell migration (scratch wound) assay; type: cell-based; conditions: MDA-MB-231, 400 μM, hypoxia
Method: Tumour cell migration is one of the basic biological characteristics of tumour cells. […] MDA-MB-231 was selected as the experimental cell line to explore the ability of 16a to reduce tumour cells migration under hypoxia.
MDA-MB-231 cells (1 × 10^5 cells/well) were cultured in 6-well plates and wounded by scratching with a pipette tip. The wounded cell monolayers were washed three times with PBS and incubated with serum-free medium.

[6] = hypoxia, read-out: cell viability, Hypoxic condition (%)
[7] = normoxia, read-out: cell viability, Normoxic condition (%)

Chain of hCA XII (O43570 25-354): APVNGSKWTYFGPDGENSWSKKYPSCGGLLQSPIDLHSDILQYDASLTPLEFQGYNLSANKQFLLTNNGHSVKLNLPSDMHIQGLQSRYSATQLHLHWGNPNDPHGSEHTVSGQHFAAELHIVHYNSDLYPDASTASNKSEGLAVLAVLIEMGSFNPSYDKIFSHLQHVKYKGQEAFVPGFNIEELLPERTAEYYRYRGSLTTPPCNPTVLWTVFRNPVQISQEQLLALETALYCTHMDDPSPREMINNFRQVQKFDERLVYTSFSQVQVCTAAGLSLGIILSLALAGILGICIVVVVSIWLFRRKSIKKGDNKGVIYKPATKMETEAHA

| SMILES | effect on extracellular pH (HT-29 cells [1]) | Extracellular pH, Hypoxic condition (HT-29 cells [1]; HT-29, 0.1 mM) | Extracellular pH, Normoxic condition (HT-29 cells [1]; HT-29, 0.1 mM) | Extracellular pH, Hypoxic condition (HT-29 cells [1]; HT-29, 1.0 mM) | Extracellular pH, Normoxic condition (HT-29 cells [1]; HT-29, 1.0 mM) | effect on extracellular pH (MDA-MB-231 cells [2]) | Extracellular pH, Hypoxic condition (MDA-MB-231 cells [2]; MDA-MB-231, 0.1 mM) | Extracellular pH, Normoxic condition (MDA-MB-231 cells [2]; MDA-MB-231, 0.1 mM) | Extracellular pH, Hypoxic condition (MDA-MB-231 cells [2]; MDA-MB-231, 1.0 mM) | Extracellular pH, Normoxic condition (MDA-MB-231 cells [2]; MDA-MB-231, 1.0 mM) | IC50 (hCA XII) [nM] | IC50 (hCA II) [nM] | IC50 (hCA IX) [nM] | viability at 800 µM (MG-63 cells; [6]) [%] | viability at 800 µM (MG-63 cells; [7]) [%] | decrease in cell viability (HT-29 cells [3]) [%] | viability at 400 µM (HT-29 cells [3]; [6]) [%] | viability at 400 µM (HT-29 cells [3]; [7]) [%] | viability at 400 µM (MDA-MB-231 cells [4]; [6]) [%] | viability at 400 µM (MDA-MB-231 cells [4]; [7]) [%] | further results |
| --- | --- | --- | --- | --- | --- | --- | --- | --- | --- | --- | --- | --- | --- | --- | --- | --- | --- | --- | --- | --- | --- |
| NS(=O)(=O)c1ccc(-n2cc(-c3cccc(NC(=O)CCC(=O)N[C@@H]4O[C@H](CO)[C@@H](O)[C@H](O)[C@H]4O)c3)nn2)cc1 [Compound 16b, N^1-(3-(1-(4-sulfamoylphenyl)-1H-1,2,3-triazol-4-yl)phenyl)-N^4-((2R,3R,4S,5S,6R)-3,4,5-trihydroxy-6-(hydroxymethyl)tetrahydro-2H-pyran-2-yl)succinamide] | improve the extracellular pH | 6.82 | 6.96 | 7.27 | 7.15 | improve the extracellular pH | 6.88 | 7.02 | 7.20 | 7.20 | 256 | 13.3 | 86.6 | 76.6 ± 3.51 | 81.6 ± 3.34 | 20 | 81.1 ± 2.43 | 89.67 ± 0.554 | 86.5 ± 1.92 | 90.5 ± 0.965 | inhibition of MG-63 cell viability (MG-63 cells; MG-63, normoxia and hypoxia): concentration-dependent |
| COc1cc(-c2cn(-c3ccc(S(N)(=O)=O)cc3)nn2)ccc1NC(=O)CCCC(=O)N[C@@H]1O[C@H](CO)[C@@H](O)[C@H](O)[C@H]1O [Compound 16m, N^1-(2-methoxy-4-(1-(4-sulfamoylphenyl)-1H-1,2,3-triazol-4-yl)phenyl)-N^5-((2R,3R,4S,5S,6R)-3,4,5-trihydroxy-6-(hydroxymethyl)tetrahydro-2H-pyran-2-yl)glutaramide] | – | – | – | – | – | – | – | – | – | – | 146 | 88.1 | 99.6 | – | – | – | – | – | – | – | – |
| NS(=O)(=O)c1ccc(-n2cc(-c3ccc(NC(=O)CCC(=O)N[C@@H]4O[C@H](CO)[C@@H](O)[C@H](O)[C@H]4O)cc3)nn2)cc1 [Compound 16a, N^1-(4-(1-(4-sulfamoylphenyl)-1H-1,2,3-triazol-4-yl)phenyl)-N^4-((2R,3R,4S,5S,6R)-3,4,5-trihydroxy-6-(hydroxymethyl)tetrahydro-2H-pyran-2-yl)succinamide] | improve the extracellular pH | 6.88 | 6.97 | 7.26 | 7.13 | improve the extracellular pH | 6.9 | 7.04 | 7.31 | 7.21 | 135 | 27.7 | 51.6 | – | – | 20 | 82.6 ± 1.92 | 83.3 ± 2.09 | 85.1 ± 1.68 | 88.9 ± 1.71 | effect on tumour cell migration (MDA-MB-231 cells [5]; at 72 h): could hardly be detected; effect on tumour cell migration (MDA-MB-231 cells [5]; first 24 h, vs blank group): slight inhibitory effect |
| CC(=O)Nc1nnc(S(N)(=O)=O)s1 [AZM, acetazolamide, reference compound] | – | 6.90 | 6.97 | 7.28 | 7.26 | – | 6.97 | 7.05 | – | 7.23 | – | – | – | 81.7 ± 1.17 | 87.1 ± 1.94 | – | 89.53 ± 0.161 | 91.7 ± 2.59 | 85.2 ± 1.96 | 96.2 ± 2.28 | – |
| Cc1cc(-c2cn(-c3ccc(S(N)(=O)=O)cc3)nn2)ccc1NC(=O)CCC(=O)N[C@@H]1O[C@H](CO)[C@@H](O)[C@H](O)[C@H]1O [Compound 16e, N^1-(2-methyl-4-(1-(4-sulfamoylphenyl)-1H-1,2,3-triazol-4-yl)phenyl)-N^4-((2R,3R,4S,5S,6R)-3,4,5-trihydroxy-6-(hydroxymethyl)tetrahydro-2H-pyran-2-yl)succinamide] | – | – | – | – | – | – | – | – | – | – | 162 | 41.6 | 84.7 | – | – | – | 87.7 ± 1.79 | 91.5 ± 2.64 | 90.6 ± 2.76 | 87.2 ± 2.28 | – |
